Results taken from ChEMBL document CHEMBL5233249, “Recent advancements in the development of heterocyclic anti-inflammatory agents” (Eur J Med Chem, 2020).
In brackets after ≈: the same amount, converted by molar mass.

Columns and labels:
Rattus norvegicus [1] = experiment: Anti-inflammatory activity against Carrageenan-induced paw edema in PO dosed Wistar albino rat assessed as inhibition of edema measured after 3 hr relative to control; assay type: functional; parameters: scale not given: the % may be the effect or the level left
[2] = Antioxidant activity assessed as DPPH radical scavenging activity incubated for 20 mins by spectrophotometric analysis; assay type: functional
[3] = target: T1, Prostaglandin G/H synthase 2 (Homo sapiens) (UniProt P35354); experiment: Inhibition of COX-2 (unknown origin) assessed as inhibition at 100 mg/kg relative to control; assay type: organism-based
T1 sequence (whole entry): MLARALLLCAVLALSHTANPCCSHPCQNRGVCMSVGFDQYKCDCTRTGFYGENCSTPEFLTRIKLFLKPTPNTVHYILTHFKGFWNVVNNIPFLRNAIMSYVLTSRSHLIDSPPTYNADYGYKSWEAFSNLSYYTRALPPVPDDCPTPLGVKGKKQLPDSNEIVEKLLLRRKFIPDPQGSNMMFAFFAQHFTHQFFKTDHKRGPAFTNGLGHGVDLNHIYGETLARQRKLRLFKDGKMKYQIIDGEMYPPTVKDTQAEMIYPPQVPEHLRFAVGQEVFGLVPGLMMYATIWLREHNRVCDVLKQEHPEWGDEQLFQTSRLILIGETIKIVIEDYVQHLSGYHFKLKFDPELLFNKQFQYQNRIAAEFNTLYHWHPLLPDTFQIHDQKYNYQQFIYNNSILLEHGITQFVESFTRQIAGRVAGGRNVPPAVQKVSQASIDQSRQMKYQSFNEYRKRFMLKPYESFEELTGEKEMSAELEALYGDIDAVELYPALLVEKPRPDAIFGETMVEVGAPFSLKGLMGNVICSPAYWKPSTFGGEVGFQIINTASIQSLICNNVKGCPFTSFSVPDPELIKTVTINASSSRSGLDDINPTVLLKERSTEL

RAW264.7 = experiment: Anti-inflammatory activity in mouse RAW264.7 cells assessed as inhibition of LPS-induced NO production measured after 24 hrs; assay type: functional, cell-based; conditions: RAW264.7, 24 h
Rattus norvegicus [4] = experiment: Anti-inflammatory activity against Carrageenan-induced paw edema in PO dosed Wistar albino rat assessed as inhibition of edema measured after 4 hr relative to control; assay type: functional; parameters: scale not given: the % may be the effect or the level left
Rattus norvegicus [5] = experiment: Anti-inflammatory activity against Carrageenan-induced paw edema in PO dosed Wistar albino rat assessed as inhibition of edema measured after 1 hr relative to control; assay type: functional; parameters: scale not given: the % may be the effect or the level left
Rattus norvegicus [6] = experiment: Anti-inflammatory activity against Carrageenan-induced paw edema in PO dosed Wistar albino rat assessed as inhibition of edema measured after 2 hr relative to control; assay type: functional; parameters: scale not given: the % may be the effect or the level left
Rattus norvegicus [7] = experiment: Anti-inflammatory activity against Carrageenan-induced paw edema in PO dosed Wistar albino rat assessed as reduction in hind paw edema volume at 20 mg/kg relative to control; assay type: functional; parameters: scale not given: the % may be the effect or the level left
Rattus norvegicus [8] = experiment: Anti-inflammatory activity in Wistar rat assessed as reduced hind paw edema at 25 mg/kg relative to control; assay type: functional; parameters: scale not given: the % may be the effect or the level left
[9] = Selectivity index, ratio of IC50 for ovine COX1 to IC50 for recombinant human COX2
[10] = Anti-inflammatory activity assessed as heat -induced protein denaturation using hen egg albumin at 31.25 ug/ml relative to control; assay type: functional; conditions: dose 31.25 µg/ml
Rattus norvegicus [11] = experiment: Anti-ulcerative activity in aspirin induced Wistar rat ulcer model assessed as inhibition of ulcer index at 20 mg/kg,po; assay type: functional
Rattus norvegicus [12] = experiment: Anti-inflammatory activity against formalin-induced foot paw edema in PO dosed rat at 10 mg/kg assessed as inhibition of edema measured after 5 hr relative to control; assay type: functional; parameters: scale not given: the % may be the effect or the level left
[13] = Anti-inflammatory activity assessed as protein denaturation using bovine serum albumin relative to control; assay type: functional
Erythrocyte = experiment: Anti-inflammatory activity in human red blood cells assessed as stabilization of cell membrane; assay type: functional, cell-based
[14] = target: T2, Polyunsaturated fatty acid 5-lipoxygenase (Homo sapiens, UniProt P09917); experiment: Inhibition of 5-LOX (unknown origin) after 5 mins by colorimetric method
T2 sequence (P09917 whole entry): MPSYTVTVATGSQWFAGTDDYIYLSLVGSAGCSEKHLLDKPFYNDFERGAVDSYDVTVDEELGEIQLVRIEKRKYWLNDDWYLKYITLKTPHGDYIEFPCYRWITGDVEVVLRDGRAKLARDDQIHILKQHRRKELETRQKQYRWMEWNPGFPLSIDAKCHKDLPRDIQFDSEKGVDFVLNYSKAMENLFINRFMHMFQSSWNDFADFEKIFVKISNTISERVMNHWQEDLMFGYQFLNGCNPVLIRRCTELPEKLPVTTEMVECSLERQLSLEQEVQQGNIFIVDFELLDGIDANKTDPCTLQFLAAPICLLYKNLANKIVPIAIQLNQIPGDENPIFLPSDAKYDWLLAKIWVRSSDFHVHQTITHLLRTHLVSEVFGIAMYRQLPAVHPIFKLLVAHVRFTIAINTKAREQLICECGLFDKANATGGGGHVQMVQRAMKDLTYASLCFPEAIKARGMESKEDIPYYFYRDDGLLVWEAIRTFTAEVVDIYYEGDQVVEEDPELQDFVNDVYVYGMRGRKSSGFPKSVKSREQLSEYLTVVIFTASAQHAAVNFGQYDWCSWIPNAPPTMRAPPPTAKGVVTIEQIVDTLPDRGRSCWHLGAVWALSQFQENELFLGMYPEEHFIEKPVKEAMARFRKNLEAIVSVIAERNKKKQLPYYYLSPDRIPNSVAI

Rattus norvegicus [15] = experiment: Anti-inflammatory activity in Carageenan-induced foot paw edema in Swiss albino rat assessed as reduction in volume of paw edema measured after 6 hr relative to control; assay type: functional; parameters: scale not given: the % may be the effect or the level left
Rattus norvegicus [16] = experiment: Anti-inflammatory activity in Carageenan-induced foot paw edema in Swiss albino rat assessed as reduction in volume of paw edema measured after 2 hr relative to control; assay type: functional; parameters: scale not given: the % may be the effect or the level left
Rattus norvegicus [17] = experiment: Anti-inflammatory activity in Carageenan-induced foot paw edema in Swiss albino rat assessed as reduction in volume of paw edema measured after 4 hr relative to control; assay type: functional; parameters: scale not given: the % may be the effect or the level left
Rattus norvegicus [18] = experiment: Anti-inflammatory activity in Carageenan-induced foot paw edema in Swiss albino rat assessed as reduction in volume of paw edema measured after 1 hr relative to control; assay type: functional; parameters: scale not given: the % may be the effect or the level left

With `N#CC(C#N)/N=N/c1ccc2c(c1)CCC2` the Activity (Rattus norvegicus [1]) was 64.83%.
`O=C(O)C(F)(F)C(O)c1cn(-c2ccccc2)nc1-c1ccc(Cl)cc1Cl` (configuration not stated) showed an Activity [2] of 76% and an inhibition [3] of 38.6%.
Compound `C[C@@H]1C[C@H]2[C@@H]3CCC4=CC(=O)C=C[C@]4(C)[C@@]3(F)[C@@H](O)C[C@]2(C)[C@@]1(O)C(=O)CO` [DEXAMETHASONE] has an IC50 (RAW264.7) of 620 nM.
`CC(=O)Oc1ccccc1C(=O)O` showed an inhibition [3] of 11.1%.
`O=C1O[C@H]([C@@H](O)CO)C(O)=C1O` showed an Activity [2] of 81.3%.
In the case of `CC(=O)Nc1ccc(OC(=O)CCCC(=O)/C=C/c2cn(-c3ccccc3)nc2-c2ccccc2)cc1`, the Activity (Rattus norvegicus [4]) is reported as 28.57%, the Activity (Rattus norvegicus [5]) is reported as 20% and the Activity (Rattus norvegicus [6]) is reported as 15.56%.
In the case of `COc1ccc(N/N=C2\C(=O)N(CNc3c(C)cccc3C)N=C2Nc2ccccc2F)cc1`, the Activity (Rattus norvegicus [7]) is reported as 51%.
For `NS(=O)(=O)c1ccc(-n2nc(C(=O)NNC(=O)c3cccc(C(F)(F)F)c3)cc2-c2ccccc2)cc1`, the Activity (Rattus norvegicus [8]) was 62.48% and the Selectivity Index [9] was 10.
With `COc1ccc2oc(=O)cc(COc3ccc4ccccc4c3/C=N/c3c(C)n(C)n(-c4ccccc4)c3=O)c2c1` the Activity [10] was 53.6%.
`COc1ccc(N2C(=O)/C(=C/c3cn(-c4ccc(S(C)(=O)=O)cc4)nc3-c3cccc(Cl)c3)NC2=S)cc1` gave a UI (Rattus norvegicus [11]) of 2.64, an Activity (Rattus norvegicus [12]) of 60% and a Selectivity Index [9] of 9.32.
Compound `O=C(O)Cc1ccccc1Nc1c(Cl)cccc1Cl` has an Activity [13] of 84.1%.
Compound `Oc1ccccc1-c1cc(-c2cc3cc4ccccc4nc3s2)[nH]n1` has an EC50 (Erythrocyte) of 11 µg/mL (≈ 32 µM).
Compound `Cc1ccc(-c2nn(-c3ccccc3)cc2C(O)C(F)(F)C(=O)NN)cc1` (configuration not stated) has an Activity [2] of 70.9% and an inhibition [3] of 33.7%.
Compound `O=C1/C(=N\Nc2ccccc2Br)C(Nc2ccccc2F)=NN1CNc1ccccc1` has an Activity (Rattus norvegicus [7]) of 64%.
Compound `Cc1c(/N=C/c2c(OCc3cc(=O)oc4cc(O)ccc34)ccc3ccccc23)c(=O)n(-c2ccccc2)n1C` has an Activity [10] of 67.3%.
`N=C1/C(=N\Nc2ccc(Cl)cc2)C(N)=NN1c1ccc(S(N)(=O)=O)cc1` gave an IC50 [14] of 2310 nM.
Work on `CCCC1Nc2cc(C(=O)N/N=C/c3ccc(Cl)cc3Cl)cc(C)c2N1` (configuration not stated) yielded an Activity (Rattus norvegicus [15]) of 90.3%, an Activity (Rattus norvegicus [16]) of 59.38% and an Activity (Rattus norvegicus [17]) of 81.4%. The Activity (Rattus norvegicus [18]) was 45.5%.
